Measured values: patent US20060204443A1, “Methods for tumor treatment using dendrimer conjugates” (The Government of the USA as represented by the Secretary …, priority 2005, published 2006)
“Also recorded” adds a separate entry of the source.

How the values were obtained:
[1] = system: lymphatic vessels and lymph nodes of disease model mice; assay: 3D-micro-MRL in lymphatic disease models (Concanavalin A lymphangitis, IL-15 transgenic); type: in vivo; settings: for Visualization of lymph nodes in lymphoproliferation/lymphoma: 45 minutes after injection
Experimental: To generate a lymphangitis model, Concanavalin A ([…]) (Sigma, St. Louis, Mo.) was injected intravenously into C57BL6 mice (NCI, Frederick, Md.) 24 hours before MRI was performed.
Eight- to 10-month old IL-15 transgenic mice (on a C57BL6 background) were used as a chronic lymphoproliferative/neoplastic disease model because they manifested selective expansion of NK, CD8^+NK-T, γδIELs, and CD8 T cells in the periphery. Most of the lymph nodes collected from an aged IL-15 transgenic mouse were enlarged in size. The lesion of proliferated monoclonal lymphocytes often involved the lung and the subcutaneous lymphatic tissue.
(§1) The mice were anesthetized with 1.15 mg sodium pentobarbital (Dainabot, Osaka, Japan) by intraperitoneal injection, and then injected intracutaneously with 0.1 μmolGd of PAMAM-G8, DAB-G5, PAMAM-G4, Gadomer-17, or GPDM into four middle phalanges in all four extremities. Dynamic micro-MR images were obtained using a 1.5-Tesla superconductive magnet unit (Signa LX, General Electric Medical System, Milwaukee, Wis.) with a round birdcage type coil of 3 cm diameter fixed by a custom-made coil holder. Four to eight female mice (7 weeks old, 18-21 g body weight) in each group were used and each contrast agent was prepared at least three separate times for these imaging studies. The mice were wrapped with gauze to stabilize their body temperature and were placed at the center of the coils.
(§2) A 3D-fast spoiled gradient echo (3D-fastSPGR (efgre3d package; Signa Horizon, GE); repetition time/echo time 28.5/7.9 msec; inversion time 65 msec; 31.2 kHz, flip angle 30°, four excitations; 40 slice-encoding steps; scan time 7 min 36 seconds) with chemical shift fat-suppression was used 10, 20, 30, and 45 min after injection of the contrast agents. The coronal images were reconstructed with 0.6-mm section thickness at every 0.3-mm. The field of view was 6×3 cm and the size of the matrix was 512×256. The intensities of the regions of interest (for example, a whole axillary lymph node, and the liver) were measured, and then the time-intensity curves analyzed. The data were expressed as the axillary lymph node-to-muscle and the axillary lymph node-to-liver ratios. The slice data were processed into 3D images using the MIP method with the same window and level (window 3500 and level 2300) (Advantage Windows, General Electric Medical System). Two board-certified radiologists separately read a set of stereo views of 3D-MRL for all studies, and estimated the visualization of the thoracic duct. After imaging, the mice were sacrificed by carbon dioxide inhalation.

[2] = system: deep lymphatic system (lymph nodes, thoracic duct); assay: Whole-body dynamic 3D-micro-MRL after intracutaneous injection, normal mice (Examples 2, 3); type: in vivo; settings: for Number of Mice in Which the Thoracic Duct was Visualized/Number of Mice Examined: Normal Mice, 0.1 μmolGd intracutaneously; for Axillary lymph node-to-background (muscle) signal intensity ratio / Axillary lymph node-to-liver signal intensity ratio: all time points examined; for Axillary lymph node-to-background (muscle) signal intensity ratio: FIG. 11A; for Axillary lymph node-to-liver signal intensity ratio: FIG. 11B
Experimental: as §1, §2
In this example, the PAMAM-G8 contrast agent is compared to GPDM. PAMAM-G8 was prepared as described in Example 2, and GPDM was purchased (Schering AG, Berlin, Germany). Animal models, administration of the contrast agents, and 3D-micro-MRL were as described in Example 2.

[3] = system: axillary lymph nodes and their lymphatic vessels; assay: Dynamic 3D-MR lymphangiography, effect of contrast agent size (Example 4); type: in vivo, athymic nu/nu mice; settings: for Visualization of axillary lymph nodes and their lymphatic vessels: 6-36 minutes post-injection into mammary gland; for Depiction of lymphatic vessels / Signal intensity within the axillary lymph nodes in comparison to G6 and G8 / Signal intensity of adjacent muscle in comparison to G6 and G8: mouse, in vivo; for Signal intensity within the axillary lymph node (enhancement ratio, lymph node / adjacent muscle): 0.15 μmolGd/5 μL
Experimental: Mice were anesthetized with 1.15 mg sodium pentobarbital (Dainabot, Osaka, Japan) by intraperitoneal injection. Then 0.15 μmolGd/5 μL of all nano-size contrast agents or 0.45 μmolGd/5 μL of Gd-[DTPA]-dimeglumine were injected into normal mammary glands or mammary tissue surrounding a tumor. Dynamic MR images were obtained using a 1.5-Tesla superconductive magnet unit (Signa LX, General Electric Medical System, Milwaukee, Wis.) with a birdcage type coil of 3 cm diameter fixed by a custom-made coil holder. The mice were wrapped with gauze to conserve their body temperature and were placed at the center of the coils.
In order to evaluate the effect of contrast agent molecular size on the ability to visualize the lymphatics and lymph nodes of athymic nu/nu mice, thirty five non-tumor bearing nu/nu mice were divided into seven groups (n=5). The mice were evaluated with 3D-fast spoiled gradient echo (3D-fastSPGR (efgre3d package; Signa Horizon, GE); repetition time/echo time 19.2/7.2 msec; inversion time 47 msec; bandwidth 31.2 kHz, flip angle 30°, 4 excitations; 36 slice encoding steps; scan time 4 minutes 49 seconds) with chemical shift fat-suppression at 6, 12, 18, 24, 30, and 36 minutes post-injection of each contrast agent. The coronal images were reconstructed with 0.6-mm section thickness every 0.3-mm. The field of view was 8×4 cm and the size of the matrix was 512×256. The slice data were processed into 3D images using the maximum intensity projection (MIP) method with the same window and level (window 3500 and level 2100) (Advantage Windows, General Electric Medical System). The enhancement ratio was calculated by taking the average signal intensity in the axillary lymph node and dividing it by the signal intensity in the adjacent muscle.

[4] = in vivo
[5] = Example 2, normal mice, 10-45 min after injection

DAB-Am-128-(Gd-1B4M)128 dendrimer conjugate [DAB-G5]
Visualization of lymph nodes in lymphoproliferation/lymphoma ([1]; IL-15 transgenic mice, FIG. 13): considerable multiple lymph node swellings with central filling defects
Number of Mice in Which the Thoracic Duct was Visualized/Number of Mice Examined ([2]; 10 min): 3/5
Number of Mice in Which the Thoracic Duct was Visualized/Number of Mice Examined ([2]; 20 min): 2/5
Number of Mice in Which the Thoracic Duct was Visualized/Number of Mice Examined ([2]; 30 min): 0/5
Number of Mice in Which the Thoracic Duct was Visualized/Number of Mice Examined ([2]; 45 min): 0/5
Axillary lymph node-to-background (muscle) signal intensity ratio [2]: significantly higher than that obtained with either PAMAM-G8 or PAMAM-G4
Axillary lymph node-to-liver signal intensity ratio [2]: nearly equivalent, but were significantly higher than that measured with GPDM
Visualization of axillary lymph nodes and their lymphatic vessels [3]: superior to the G2 and G4 PAMAM dendrimers; also recorded: better contrast than PAMAM dendrimer-based agents of similar sizes
Depiction of lymphatic vessels [3]: neither agent depicted lymphatic vessels
Signal intensity within the axillary lymph nodes in comparison to G6 and G8 [3]: lower signal intensities

Gadomer-17 [reference compound]
Clearance from the body ([4]; iv): rapidly cleared from the body
Visualization of deep lymph nodes [2, 5]: allowed visualization of the deep lymph nodes, albeit not as clearly and brightly as the dendrimer-based agents
Number of Mice in Which the Thoracic Duct was Visualized/Number of Mice Examined ([2]; 10 min): 2/5
Number of Mice in Which the Thoracic Duct was Visualized/Number of Mice Examined ([2]; 20 min): 2/5
Number of Mice in Which the Thoracic Duct was Visualized/Number of Mice Examined ([2]; 30 min): 1/5
Number of Mice in Which the Thoracic Duct was Visualized/Number of Mice Examined ([2]; 45 min): 1/5
Axillary lymph node-to-background (muscle) signal intensity ratio [2]: significantly higher than that acquired with GPDM
Axillary lymph node-to-liver signal intensity ratio [2]: nearly equivalent, but were significantly higher than that measured with GPDM
Visualization of axillary lymph nodes and their lymphatic vessels [3]: superior to the G2 and G4 PAMAM dendrimers; also recorded: better contrast than PAMAM dendrimer-based agents of similar sizes
Depiction of lymphatic vessels [3]: neither agent depicted lymphatic vessels
Signal intensity of adjacent muscle in comparison to G6 and G8 [3]: significantly higher than those measured with G6 and G8
Signal intensity within the axillary lymph nodes in comparison to G6 and G8 [3]: lower signal intensities

PAMAM-G4D-(Gd-1B4M)64 dendrimer conjugate
Survival in the blood circulation [4]: short survival in the blood circulation due to a rapid renal excretion without significant retention in other organs
Number of Mice in Which the Thoracic Duct was Visualized/Number of Mice Examined ([2]; 10 min): 4/5
Number of Mice in Which the Thoracic Duct was Visualized/Number of Mice Examined ([2]; 20 min): 4/5
Number of Mice in Which the Thoracic Duct was Visualized/Number of Mice Examined ([2]; 30 min): 3/5
Number of Mice in Which the Thoracic Duct was Visualized/Number of Mice Examined ([2]; 45 min): 2/5
Axillary lymph node-to-background (muscle) signal intensity ratio [2]: significantly higher than that measured with Gadomer-17 and GPDM
Axillary lymph node-to-liver signal intensity ratio [2]: significantly higher than that acquired with PAMAM-G8, DAB G-5, or Gadomer-17
Visualization of axillary lymph nodes and their lymphatic vessels [3]: able to depict the lymph nodes only faintly and then only up to 12 minutes post-injection
Signal intensity of adjacent muscle in comparison to G6 and G8 ([3]; listed as G4): significantly higher than those measured with G6 and G8; also recorded: higher signal in the adjacent muscle
Signal intensity within the axillary lymph nodes in comparison to G6 and G8 ([3]; listed as G4): lower signal intensities; also recorded: significantly lower signal

PAMAM-G7D-(Gd-1B4M)1024 dendrimer conjugate [PAMAM-G8]
Leakage out of the lymphatic vessels [4]: minimal leakage out of the lymphatic vessels
Visualization of lymphatic vessels in lymphangitis ([1]; Concanavalin A lymphangitis model, FIG. 12): demonstrated the remarkable dilation of the lymphatic vessels throughout the body, especially in the liver
Visualization of lymph nodes in lymphoproliferation/lymphoma ([1]; IL-15 transgenic mice, FIG. 13): considerable multiple lymph node swellings with central filling defects
Visualization of dilation of lymphatic vessels ([1]; IL-15 transgenic mice, FIG. 13): best visualized with PAMAM-G8
Visualization of lymphatic vessels ([2]; Example 2): better visualized with PAMAM-G8 compared to all other agents examined
Visualization by a radiologist of the thoracic duct ([2]; Example 2, all times after administration): in all mice at all times after administration
Visualization of deep lymph nodes [2, 5]: enabled most of the deep lymph nodes to be visualized
Visualization of deep lymph nodes ([2]; Example 3, FIG. 15): most deep lymph nodes throughout the body were visualized
Visualization of the thoracic duct ([2]; Example 3, FIG. 15): visualized in all six mice
Number of Mice in Which the Thoracic Duct was Visualized/Number of Mice Examined ([2]; 10 min): 10/10
Number of Mice in Which the Thoracic Duct was Visualized/Number of Mice Examined ([2]; 20 min): 10/10
Number of Mice in Which the Thoracic Duct was Visualized/Number of Mice Examined ([2]; 30 min): 10/10
Number of Mice in Which the Thoracic Duct was Visualized/Number of Mice Examined ([2]; 45 min): 10/10
Axillary lymph node-to-background (muscle) signal intensity ratio [2]: significantly higher than that measured with Gadomer-17 and GPDM
Axillary lymph node-to-liver signal intensity ratio [2]: nearly equivalent, but were significantly higher than that measured with GPDM
Visualization of axillary lymph nodes and their lymphatic vessels [3]: visualized at all time points in all 10 mice
Signal intensity within the axillary lymph node (enhancement ratio, lymph node / adjacent muscle) ([3]; 6 minutes post-injection): 1.7±0.2
Signal intensity within the axillary lymph node (enhancement ratio, lymph node / adjacent muscle) ([3]; 12 minutes post-injection): 2.3±0.2
